Measurements: patent publication US8802713B2, “3-alkoxy-1-phenylpyrazole derivatives and pesticides” (Kumiai Chemical Industry Co., Ltd., priority 2007, dated 2014)
Like-named read-outs stand apart in the source and are kept apart here.

Legend:
cotton aphid = experiment: Insecticidal test on cotton aphid (seedling dip); format: in vivo; settings: Aphis gossypii, 72 h
Protocol: A wettable powder prepared in accordance with Formulation Example 2 was diluted with water to a concentration of an active ingredient of 500 ppm. Cucumber seedlings which had been inoculated with larvae of cotton aphid were dipped in this solution and dried in air. The treated cucumber seedlings were placed in a thermostatic chamber at 25° C. for 3 days, and the live insects were counted for calculation of the mortality by Equation 2. The test was carried out by one series system.

diamondback moth = experiment: Insecticidal test on diamondback moth; format: in vivo; settings: Plutella xylostella, 144 h
Protocol: A wettable powder prepared in accordance with Formulation Example 2 was diluted with water to a concentration of an active ingredient of 500 ppm. Cabbage leaves were dipped in this solution and dried in air and then put in a plastic cup having a capacity of 60 mL. 10 second-instar larvae of diamondback moth were released in the cup and the cup was lidded. Then, the cup was placed in a thermostatic chamber at 25° C. for 6 days, and dead moths were counted for calculation of the mortality by Equation 2. The test was carried out by one series system.

cotton bollworm = experiment: Insecticidal test on cotton bollworm; format: in vivo; settings: Helicoverpa armigera, 144 h
Protocol: A wettable powder prepared in accordance with Formulation Example 2 was diluted with water to a concentration of an active ingredient of 500 ppm. Cabbage leaves were dipped in this solution and dried in air and then put in a plastic cup having a capacity of 60 mL. Five hatched larvae of cotton bollworm were released in the cup, and the cup was lidded and placed in a thermostatic chamber at 25° C. for 6 days, and the number of dead larvae were assessed for calculation of the mortality by Equation 2. The test was carried out by two series system.

brown rice planthopper = experiment: Insecticidal test on brown rice planthopper; format: in vivo; settings: 144 h
Protocol: A wettable powder prepared in accordance with Formulation Example 2 was diluted with water to a concentration of an active ingredient of 500 ppm. Rice sprouts were dipped in this solution and put in a plastic cup having a capacity of 60 mL. Ten third-instar larvae of brown rice planthopper were released in the cup, the cup was lidded and placed in a thermostatic chamber at 25° C. for 6 days, and the number of dead larvae were counted for calculation of the mortality by Equation 2. The test was carried out by one series system.

two-spotted spider mites = experiment: Miticidal test on two-spotted spider mites (seedling dip); format: in vivo, Tetranvchus urticae; settings: Glycine max, 312 h, read-out: protective value
Protocol: A wettable powder prepared in accordance with Formulation Example 2 was diluted with water to a concentration of an active ingredient of 500 ppm. Soybean seedlings which had been inoculated with imago two-spotted spider mites were dipped in the solution and dried in air. The treated soybean seedlings were placed in a thermostatic chamber at 25° C. for 13 days, and the number of live mites were assessed for calculation of the protective value by Equation 1. The test was carried out by one series system.

[1] = 500 ppm active ingredient, soybean seedlings with imago mites dipped, 25° C., 13 days
[2] = 500 ppm active ingredient, cucumber seedlings with larvae of cotton aphid dipped, 25° C., 3 days, read-out: mortality
[3] = 500 ppm active ingredient, cabbage leaves dipped, second-instar larvae, 25° C., 6 days, read-out: mortality
[4] = 500 ppm active ingredient, cabbage leaves dipped, hatched larvae, 25° C., 6 days, read-out: mortality

| melting point [°C] | Compound | mortality at 500 ppm (cotton aphid; in Cucumis sativus) [%] | mortality at 500 ppm (diamondback moth; in Brassica oleracea) [%] | mortality at 500 ppm (cotton bollworm; in Brassica oleracea) [%] | mortality at 500 ppm (brown rice planthopper) [%] | pest or weed control at 500 ppm (two-spotted spider mites; [1]) [%] | mortality at 500 ppm (cotton aphid; [2]) [%] | mortality at 500 ppm (diamondback moth; [3]) [%] | mortality at 500 ppm (cotton bollworm; [4]) [%] | pest or weed control at 500 ppm (two-spotted spider mites) [%] |
| --- | --- | --- | --- | --- | --- | --- | --- | --- | --- | --- |
| – | CC(=O)Nc1cc(OC(F)(F)C(F)OC(F)(F)F)nn1-c1cc(SCC(F)(F)F)c(C)cc1F (stereo not drawn) [1-15, 5-acetylamino-1-{2-fluoro-4-methyl-5-(2,2,2-trifluoroethylthio)phenyl}-3-{1,1,2-trifluoro-2-(trifluoromethoxy)ethoxy}pyrazole] | ≥ 90 | ≥ 90 | ≥ 90 | ≥ 90 | ≥ 90 | – | – | – | – |
| 102 to 104 | Cc1cc(F)c(-n2nc(OCC(F)(F)C(F)(F)F)cc2CC(N)=O)cc1SCC(F)(F)F [1-139, 1-{2-fluoro-4-methyl-5-(2,2,2-trifluoroethylthio)phenyl}-3-(2,2,3,3,3-pentafluoropropoxy)pyrazole-5-carboxyamide] | – | – | – | – | – | – | – | – | – |
| – | CNc1cc(OC(F)(F)C(F)OC(F)(F)C(F)(F)C(F)(F)F)nn1-c1cc(SCC(F)(F)F)c(C)cc1F (stereo not drawn) [1-347, 1-{2-fluoro-4-methyl-5-(2,2,2-trifluoroethylthio)phenyl}-5-methylamino-3-{1,1,2-trifluoro-2-(heptafluoropropoxy)ethoxy}pyrazole] | – | – | – | ≥ 90 | – | ≥ 90 | ≥ 90 | ≥ 90 | ≥ 90 |
| – | C#CCNc1cc(OC(F)(F)C(F)OC(F)(F)C(F)(F)C(F)(F)F)nn1-c1cc(SCC(F)(F)F)c(C)cc1F (stereo not drawn) [1-357, 1-{2-fluoro-4-methyl-5-(2,2,2-trifluoroethylthio)phenyl}-5-(2-propynylamino)-3-{1,1,2-trifluoro-2-(heptafluoropropoxy)ethoxy}pyrazole] | – | – | – | ≥ 90 | – | ≥ 90 | ≥ 90 | ≥ 90 | ≥ 90 |
| – | Cc1cc(F)c(-n2nc(OCC(F)(F)C(F)(F)C(F)(F)F)cc2NC=O)cc1[S+]([O-])CC(F)(F)F (stereo not drawn) [1-1594, 1-{2-fluoro-4-methyl-5-(2,2,2-trifluoroethylsulfinyl)phenyl}-5-formylamino-3-(2,2,3,3,4,4,4-heptafluorobutoxy)pyrazole] | – | – | – | – | – | ≥ 90 | ≥ 90 | ≥ 90 | – |
| – | CNc1cc(OC(F)(F)C(F)C(F)(F)F)nn1-c1cc([S+]([O-])CC(F)(F)F)c(C)cc1F (stereo not drawn) [1-187, 1-{2-fluoro-4-methyl-5-(2,2,2-trifluoroethylsulfinyl)phenyl}-3-(1,1,2,3,3,3-hexafluoropropoxy)-5-methylaminopyrazole] | – | – | – | ≥ 90 | – | ≥ 90 | ≥ 90 | ≥ 90 | – |
| – | CC(=O)Nc1cc(OC(F)(F)C(F)F)nn1-c1cc([S+]([O-])CC(F)(F)F)c(C)cc1F (stereo not drawn) [1-1368, 5-acetylamino-1-{2-fluoro-4-methyl-5-(2,2,2-trifluoroethylsulfinyl)phenyl}-3-(1,1,2,2-tetrafluoroethoxy)pyrazole] | ≥ 90 | ≥ 90 | ≥ 90 | ≥ 90 | ≥ 90 | – | – | – | – |
| – | CC(=O)Nc1cc(OCC(F)(F)C(F)(F)C(F)(F)C(F)(F)F)nn1-c1cc([S+]([O-])CC(F)(F)F)c(C)cc1F (stereo not drawn) [1-78, 5-acetylamino-1-{2-fluoro-4-methyl-5-(2,2,2-trifluoroethylsulfinyl)phenyl}-3-(2,2,3,3,4,4,5,5,5-nonafluoropentyloxy)pyrazole] | – | – | – | ≥ 90 | – | – | ≥ 90 | ≥ 90 | ≥ 90 |
| – | C#CCNc1cc(OCC(F)(F)C(F)(F)F)nn1-c1cc(SCC(F)(F)F)c(C)cc1F [1-161, 1-{2-fluoro-4-methyl-5-(2,2,2-trifluoroethylthio)phenyl}-3-(2,2,3,3,3-pentafluoropropoxy)-5-(2-propynylamino)pyrazole] | ≥ 90 | ≥ 90 | ≥ 90 | ≥ 90 | ≥ 90 | – | – | – | – |
| – | CC(=O)Nc1cc(OCC(F)(F)C(F)(F)F)nn1-c1cc(SCC(F)(F)F)c(C)cc1F [1-17, 5-acetylamino-1-{2-fluoro-4-methyl-5-(2,2,2-trifluoroethylthio)phenyl}-3-(2,2,3,3,3-pentafluoropropoxy)pyrazole] | ≥ 90 | ≥ 90 | ≥ 90 | ≥ 90 | ≥ 90 | – | – | – | – |
| – | Cc1cc(F)c(-n2nc(OC(F)(F)C(F)C(F)(F)F)cc2N)cc1SCC(F)(F)F (stereo not drawn) [1-9, 5-amino-1-{2-fluoro-4-methyl-5-(2,2,2-trifluoroethylthio)phenyl}-3-(1,1,2,3,3,3-hexafluoropropoxy)pyrazole] | ≥ 90 | ≥ 90 | ≥ 90 | ≥ 90 | ≥ 90 | – | – | – | – |
| – | CC(=O)Nc1cc(OCC(F)(F)C(F)(F)C(F)(F)C(F)(F)F)nn1-c1cc(SCC(F)(F)F)c(C)cc1F [1-77, 5-acetylamino-1-{2-fluoro-4-methyl-5-(2,2,2-trifluoroethylthio)phenyl}-3-(2,2,3,3,4,4,5,5,5-nonafluoropentyloxy)pyrazole] | – | – | – | ≥ 90 | – | – | ≥ 90 | ≥ 90 | ≥ 90 |
| – | Cc1cc(F)c(-n2nc(OCC(F)(F)C(F)(F)C(F)(F)F)cc2NC=O)cc1SCC(F)(F)F [1-1593, 1-{2-fluoro-4-methyl-5-(2,2,2-trifluoroethylthio)phenyl}-5-formylamino-3-(2,2,3,3,4,4,4-heptafluorobutoxy)pyrazole] | – | – | – | ≥ 90 | – | ≥ 90 | ≥ 90 | ≥ 90 | ≥ 90 |
| 81 to 84 | CCOC(=O)c1cc(OCC(F)(F)C(F)(F)F)nn1-c1cc(SCC(F)(F)F)c(C)cc1F [1-143, ethyl 1-{2-fluoro-4-methyl-5-(2,2,2-trifluoroethylthio)phenyl}-3-(2,2,3,3,3-pentafluoropropoxy)pyrazole-5-carboxylate] | – | – | – | – | – | – | – | – | – |
| – | CC(=O)Nc1cc(OC(F)(F)C(F)OC(F)(F)F)nn1-c1cc([S+]([O-])CC(F)(F)F)c(C)cc1F (stereo not drawn) [1-16, 5-acetylamino-1-{2-fluoro-4-methyl-5-(2,2,2-trifluoroethylsulfinyl)phenyl}-3-{1,1,2-trifluoro-2-(trifluoromethoxy)ethoxy}pyrazole] | ≥ 90 | ≥ 90 | ≥ 90 | – | ≥ 90 | – | – | – | – |
| 57 to 58 | Cc1cc(F)c(-n2cc(C#N)c(OC(F)(F)C(F)OC(F)(F)F)n2)cc1SCC(F)(F)F (stereo not drawn) [1-1587, 4-cyano-1-{2-fluoro-4-methyl-5-(2,2,2-trifluoroethylthio)phenyl}-3-{1,1,2-trifluoro-2-(trifluoromethoxy)ethoxy}pyrazole] | – | – | – | – | ≥ 90 | – | – | – | – |
| – | CNc1cc(OC(F)(F)C(F)(F)C(F)(F)C(F)(F)C(F)(F)F)nn1-c1cc([S+]([O-])CC(F)(F)F)c(C)cc1F (stereo not drawn) [1-525, 1-{2-fluoro-4-methyl-5-(2,2,2-trifluoroethylsulfinyl)phenyl}-5-methylamino-3-(1,1,2,2,3,3,4,4,5,5,5-undecafluoropentyloxy)pyrazole] | – | – | – | ≥ 90 | – | – | ≥ 90 | ≥ 90 | ≥ 90 |
| – | COc1cc(OC(F)(F)C(F)OC(F)(F)F)nn1-c1cc([S+]([O-])CC(F)(F)F)c(C)cc1F (stereo not drawn) [1-795, 1-{2-fluoro-4-methyl-5-(2,2,2-trifluoroethylsulfinyl)phenyl}-5-methoxy-3-{1,1,2-trifluoro-2-(trifluoromethoxy)ethoxy}pyrazole] | ≥ 90 | ≥ 90 | ≥ 90 | ≥ 90 | ≥ 90 | – | – | – | – |
